Data: the NIST ThermoML archive (doi:10.1016/j.fluid.2016.08.014)
Numbers after ± are expanded uncertainties.

What was measured:
[1] = Liquid, Vibrating tube method
[2] = refractive index (Na D-line) (dimensionless); details: 101.33 kPa, Liquid, Standard Abbe refractometry

NCCN [ethane-1,2-diamine]
[1]
Details	mass density [kg/m3]
293.15 K, 200 kPa	898 ± 1
293.15 K, 2500 kPa	899 ± 1
293.15 K, 5100 kPa	900 ± 1
293.15 K, 10000 kPa	903 ± 1
293.15 K, 15400 kPa	905 ± 1
293.15 K, 19800 kPa	907 ± 1
293.15 K, 25100 kPa	909 ± 1
293.15 K, 30200 kPa	911 ± 1
298.15 K, 101.33 kPa	895.323 ± 4
303.15 K, 300 kPa	890 ± 1
303.15 K, 2500 kPa	891 ± 1
303.15 K, 5000 kPa	892 ± 1
303.15 K, 10200 kPa	893 ± 1
303.15 K, 15000 kPa	896 ± 1
303.15 K, 20500 kPa	898 ± 1
303.15 K, 25100 kPa	900 ± 1
303.15 K, 30100 kPa	902 ± 1
313.15 K, 300 kPa	880 ± 1
313.15 K, 2500 kPa	880 ± 1
313.15 K, 5100 kPa	882 ± 1
313.15 K, 10000 kPa	884 ± 1
313.15 K, 15100 kPa	887 ± 1
313.15 K, 20100 kPa	889 ± 1
313.15 K, 25400 kPa	892 ± 1
313.15 K, 30400 kPa	894 ± 1
323.15 K, 200 kPa	870 ± 1
323.15 K, 2500 kPa	870 ± 1
323.15 K, 5100 kPa	872 ± 1
323.15 K, 10000 kPa	875 ± 1
323.15 K, 15000 kPa	878 ± 1
323.15 K, 19900 kPa	880 ± 1
323.15 K, 25100 kPa	882 ± 1
323.15 K, 29700 kPa	885 ± 1
333.15 K, 200 kPa	860 ± 1
333.15 K, 2500 kPa	861 ± 1
333.15 K, 5000 kPa	863 ± 1
333.15 K, 10000 kPa	866 ± 1
333.15 K, 15000 kPa	868 ± 1
333.15 K, 20000 kPa	871 ± 1
333.15 K, 25000 kPa	874 ± 1
333.15 K, 30000 kPa	876 ± 1
343.15 K, 200 kPa	850 ± 1
343.15 K, 2500 kPa	852 ± 1
343.15 K, 5100 kPa	853 ± 1
343.15 K, 10000 kPa	856 ± 1
343.15 K, 15000 kPa	860 ± 1
343.15 K, 20000 kPa	862 ± 1
343.15 K, 25100 kPa	865 ± 1
343.15 K, 30100 kPa	867 ± 1
353.15 K, 200 kPa	840 ± 1
353.15 K, 2500 kPa	842 ± 1
353.15 K, 5000 kPa	844 ± 1
353.15 K, 10200 kPa	847 ± 1
353.15 K, 15100 kPa	850 ± 1
353.15 K, 20000 kPa	853 ± 1
353.15 K, 25100 kPa	856 ± 1
353.15 K, 30100 kPa	859 ± 1
363.15 K, 200 kPa	830 ± 1
363.15 K, 2600 kPa	832 ± 1
363.15 K, 5100 kPa	834 ± 1
363.15 K, 10100 kPa	838 ± 1
363.15 K, 15000 kPa	840 ± 1
363.15 K, 20100 kPa	844 ± 1
363.15 K, 25600 kPa	847 ± 1
363.15 K, 30000 kPa	850 ± 1
373.15 K, 200 kPa	820 ± 1
373.15 K, 2500 kPa	822 ± 1
373.15 K, 5100 kPa	825 ± 1
373.15 K, 10100 kPa	828 ± 1
373.15 K, 15000 kPa	831 ± 1
373.15 K, 20100 kPa	835 ± 1
373.15 K, 25100 kPa	838 ± 1
373.15 K, 30200 kPa	841 ± 1
383.15 K, 200 kPa	810 ± 1
383.15 K, 2500 kPa	813 ± 1
383.15 K, 5200 kPa	815 ± 1
383.15 K, 10000 kPa	818 ± 1
383.15 K, 15200 kPa	822 ± 1
383.15 K, 20500 kPa	826 ± 1
383.15 K, 25000 kPa	829 ± 1
383.15 K, 30300 kPa	832 ± 1

[2]
Details	refractive index
293.15 K	1.45676 ± 0.00033
298.15 K	1.45453 ± 0.00033
